Measured values reported in article PMC7140522, “The Pyrazolo[3,4-d]pyrimidine Derivative, SCO-201, Reverses Multidrug Resistance Mediated by ABCG2/BCRP” (Cells, 2020).

Legend:
CYP2B6 [1] = target: T1, CYP2B6 (Homo sapiens, UniProt P20813); conditions: both, 10 min, pH 7.4
CYP2B6 [2] = target: T1, CYP2B6; test: biochemical
[3] = cited from earlier work
HT29SN-38-RES cells = test: MDR reversal analysis with MTT assay, HT29SN-38-RES; assay type: cell-based, human; conditions: 72 hours, oxaliplatin is not a substrate for BCRP
Procedure: (§1) Control conditions consisted of full growth medium. All treatments were performed in triplicate.

MDCK-II-WT cells = test: MDR reversal analysis with MTT assay, MDCK-II-WT; assay type: cell-based, canine; conditions: Canis lupus familiaris, 72 h drug exposure, read-out: IC50 Value for Each Cell Line: MDCK-II-WT
Procedure: Cells were seeded in Nunc 96-well plates (2000 or 8000 cells/well for the MDCK-II and HT29 cells, respectively). Following cell attachment (12–24 h), drugs were added to a total volume of 200 µL. Control conditions consisted of full growth medium. All treatments were performed in triplicate. Following 72 h of drug exposure, MTT reagent was added for either 1 h (MDCK-II) or 3 h (HT29). For cell lysis and solubilization of the formazan crystals, DMSO was added to the MDCK-II cells, whereas acidified (0.02 M HCl) sodium dodecyl sulphate was added to the HT29 cells. […] Background optical density values were subtracted, and the average optical densities were calculated. Cell viability was calculated as percentage of untreated control cells. The mean IC50 values were determined using GraphPad Prism (version 6.0, San Diego, CA, USA).

CYP2C8 = CYP2C8 (Homo sapiens, UniProt P10632); conditions: both, 10 min, pH 7.4
CYP2C19 = CYP2C19 (Homo sapiens, UniProt P33261); test: CYP inhibition, CYP2C19; conditions: HLM, omeprazole substrate
BCRP [4] = target: T2, BCRP (Homo sapiens, UniProt Q9UNQ0); test: Cellular dye efflux assay (Hoechst 33342) in HT29SN-38-RES cells; assay type: cell-based; design: endogenous in cells; host or cells: HT29 SN-38-RES (drug-selected HT29); conditions: fluorescence microscopy and imaging cytometry
T2 sequence (Q9UNQ0 1-655): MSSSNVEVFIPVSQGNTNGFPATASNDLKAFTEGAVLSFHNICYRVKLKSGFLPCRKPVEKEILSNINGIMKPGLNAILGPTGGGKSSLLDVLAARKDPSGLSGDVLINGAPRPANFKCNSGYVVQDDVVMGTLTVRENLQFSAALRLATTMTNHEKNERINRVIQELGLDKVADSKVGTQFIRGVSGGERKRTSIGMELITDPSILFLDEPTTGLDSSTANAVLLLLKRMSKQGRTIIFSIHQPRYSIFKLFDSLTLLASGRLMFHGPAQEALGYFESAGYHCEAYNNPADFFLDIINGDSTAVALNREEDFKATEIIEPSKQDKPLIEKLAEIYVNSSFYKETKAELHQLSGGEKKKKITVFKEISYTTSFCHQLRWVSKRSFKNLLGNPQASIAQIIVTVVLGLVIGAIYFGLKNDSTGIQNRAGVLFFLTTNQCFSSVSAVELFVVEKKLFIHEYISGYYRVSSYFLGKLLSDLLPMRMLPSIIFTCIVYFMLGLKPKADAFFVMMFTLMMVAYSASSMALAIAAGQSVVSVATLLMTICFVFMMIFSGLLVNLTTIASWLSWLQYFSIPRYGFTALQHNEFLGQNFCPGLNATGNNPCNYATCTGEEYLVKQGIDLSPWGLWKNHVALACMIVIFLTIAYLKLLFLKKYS
Procedure: HT29 cells were seeded either into a 96-well Nunclon plate (Thermo Fisher Scientific, Roskilde, Denmark) at a density of 6000 cells/well (for Celigo Imaging Cytometry) or into a Nunc 6-well plate at a density of 150,000 cells/well (for fluorescence microscopy). […] Then, the cells were washed with ice-cold PBS to remove excess Hoechst dye. Drugs were added again and the cells were incubated for 1h at 37 °C. The plates were analyzed with either fluorescence microscopy (6-well plates) or imaging cytometry (96-well plates). For the Celigo Imaging Cytometry (Lawrence, MA, USA), the application “Target 1 + 2 (merge)” was used, and the mean fluorescence intensities were measured and data presented as percentage of parental control.

OAT3 = target: T3, OAT3 (Homo sapiens, UniProt Q8TCC7); test: Fluorometric transporter inhibition, OAT3-CHO; assay type: in vitro ADME; conditions: CF substrate
T3 construct: expressed in transfected cells; host or cells: CHO
Procedure: (§2) Cells were seeded in a 96-well plate (20,000 cells/well) and used on days 2 or 3 post-seeding. […] Subsequently, substrate was added to the plate followed by 20 min incubation at 37 °C. The plate was then washed with cold assay buffer followed by fluorescence reading on a plate reader. The tested transporters, cell lines, substrates, and reference inhibitors are shown in the Supplementary Materials (Tables S1 and S2).
(§3) 110 Table S1. […]
OAT3 (h) inhibition (OAT3-CHO, CF substrate) […]
(§4) The IC50 values are shown for the analysed transporters with […]

CYP2D6 = CYP2D6 (Homo sapiens, UniProt P10635); conditions: both, pH 7.4
OATP1B3 = target: T4, OATP1B3 (Homo sapiens, UniProt Q9NPD5); test: Fluorometric transporter inhibition, OATP1B3-CHO; assay type: in vitro ADME; conditions: FMTX substrate
T4 construct: expressed in transfected cells; host or cells: CHO
Procedure: as §2, §3
OATP1B3 OATP1B3-CHO Fluorescein methotrexate Rifampicin […]
OATP1B3 (h) inhibition (OATP1B3 -CHO, FMTX substrate) […]
as §4

OATP1B1 = target: T5, OATP1B1 (Homo sapiens, UniProt Q9Y6L6); test: Fluorometric transporter inhibition, OATP1B1-CHO; assay type: in vitro ADME; conditions: FMTX substrate
T5 construct: expressed in transfected cells; host or cells: CHO
Procedure: as §2
110 Table S1. In vitro DMPK analysis of transporter inhibition
OATP1B1 OATP1B1-CHO Fluorescein methotrexate Rifampicin […]
OATP1B1 (h) inhibition (OATP1B1-CHO, FMTX substrate) […]
as §4

HT29PAR cells = test: MDR reversal analysis with MTT assay, HT29PAR; assay type: cell-based; conditions: Homo sapiens, 72 h drug exposure, read-out: IC50 Value for Each Cell Line: HT29PAR
Procedure: as §1

BCRP [5] = target: T2, BCRP; test: […] ATPase assay with recombinant BCRP membranes; assay type: biochemical; design: purchased Solvo Biotechnology (via Sigma-Aldrich/Merck) SB-BCRP-M; conditions: sulfasalazine alone; basal activity 50.68
Procedure: After incubation with test compounds, MgATP was added to each well and incubated at 37 °C for 10 min. The ATPase reaction was stopped by the addition of 1x Developer solution at room temperature (RT). Two minutes after, 100 µL Blocker solution was added and the plate was incubated for 30 min at 37 °C for 30 min. The optical densities were measured at 620 nm using a PowerWave X Microplate spectrophotometer (BioTek, Bad Friedrichshall, Germany).

[6] = Apparent permeability across Caco-2 cell monolayers; conditions: human, Caco-2, pH 7.4
Procedure: Bidirectional transport experiments with [3H]-estrone-3-sulfate were completed with monolayers of Caco-2 cells from the American Type Culture Collection (ATCC) cultured on Transwell permeable supports for 27 days in Dulbecco’s modified Eagle’s medium, supplemented with 10% FBS, 10 μL·mL^−1 nonessential amino acids (×100), and 100 U·mL^−1 to 100 μg·mL^−1 penicillin-streptomycin solution. The transepithelial electrical resistance was measured across Caco-2 cell monolayers with an Endohm 12-cup electrode chamber (World Precision Instruments Inc., Sarasota, FL, USA) connected volt meter (EVOM, World Precision Instruments Inc., Sarasota, FL, USA) to ensure that cell monolayers were electrically tight before initiating transport experiments. Cell monolayers were allowed to equilibrate to room temperature before the resistance was measured. Prior to initiating the transport experiments, the cell monolayers were pre-incubated in transport buffer (HBSS supplemented with 10 mM HEPES, pH 7.4, and 0.05 % BSA) for 30 min. […] For transport experiments in the apical to basolateral direction, samples of 100 µL were taken from the basoteral compartment (volume 1 mL) at t = 15, 30, 45, 60, 90, and 120 min. From transport experiments in the basolateral to apical direction, samples of 50 µL were taken from the apical compartment (volume 0.5 mL) at the same time points. The withdrawn sample volume from the acceptor compartments were immediately replaced with an equal volume of blank transport buffer. The withdrawn samples were pipetted into scintillation vials and mixed with 2 mL of scintillation fluid. […] Transport of mannitol was measured to validate the barrier integrity of the Caco-2 cell monolayers.
Data treatment: The accumulated amount of compound (Qt, nmol) appearing in the donor compartment was plotted against time. The steady-state flux of compound was calculated as the slope of the linear part of this plot, thus correcting for lag-time effects. The apparent permeability was subsequently calculated with Equation (1):(1) P=J/C_0=Q_t/(C0*A_t) where J represents the steady state flux (nmol·cm^−2·min^−1), C0 represents the initial concentration in the donor compartment, At denotes the area of the permeable support (1.12 cm^2), and Qt is the accumulated amount of compound (nmol) in the receiver compartment at time t (min).
The ratio between apparent permeability in the basolateral to apical direction and the apparent permeability in the opposite direction (efflux ratio = PB−A/PA−B ) was used as a measure of active efflux transport.

T4 sequence (Q9NPD5 whole entry): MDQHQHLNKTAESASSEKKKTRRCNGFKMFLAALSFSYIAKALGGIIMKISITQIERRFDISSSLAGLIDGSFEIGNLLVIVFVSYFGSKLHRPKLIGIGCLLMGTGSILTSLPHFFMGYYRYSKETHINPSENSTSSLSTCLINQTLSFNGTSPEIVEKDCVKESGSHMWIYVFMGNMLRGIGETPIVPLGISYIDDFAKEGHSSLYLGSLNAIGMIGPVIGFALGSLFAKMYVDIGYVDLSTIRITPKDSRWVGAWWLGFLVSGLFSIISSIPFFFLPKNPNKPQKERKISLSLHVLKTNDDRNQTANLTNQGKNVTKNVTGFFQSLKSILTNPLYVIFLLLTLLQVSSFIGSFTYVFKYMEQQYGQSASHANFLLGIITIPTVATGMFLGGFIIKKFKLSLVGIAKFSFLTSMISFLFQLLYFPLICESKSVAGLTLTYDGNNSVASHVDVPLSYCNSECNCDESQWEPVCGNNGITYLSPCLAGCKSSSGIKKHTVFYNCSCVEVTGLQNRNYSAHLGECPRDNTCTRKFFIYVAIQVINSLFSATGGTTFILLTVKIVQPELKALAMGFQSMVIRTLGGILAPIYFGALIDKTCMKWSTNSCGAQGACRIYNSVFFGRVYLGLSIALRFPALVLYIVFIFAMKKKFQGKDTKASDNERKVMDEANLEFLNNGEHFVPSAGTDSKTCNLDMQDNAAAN
T5 sequence (Q9Y6L6 whole entry): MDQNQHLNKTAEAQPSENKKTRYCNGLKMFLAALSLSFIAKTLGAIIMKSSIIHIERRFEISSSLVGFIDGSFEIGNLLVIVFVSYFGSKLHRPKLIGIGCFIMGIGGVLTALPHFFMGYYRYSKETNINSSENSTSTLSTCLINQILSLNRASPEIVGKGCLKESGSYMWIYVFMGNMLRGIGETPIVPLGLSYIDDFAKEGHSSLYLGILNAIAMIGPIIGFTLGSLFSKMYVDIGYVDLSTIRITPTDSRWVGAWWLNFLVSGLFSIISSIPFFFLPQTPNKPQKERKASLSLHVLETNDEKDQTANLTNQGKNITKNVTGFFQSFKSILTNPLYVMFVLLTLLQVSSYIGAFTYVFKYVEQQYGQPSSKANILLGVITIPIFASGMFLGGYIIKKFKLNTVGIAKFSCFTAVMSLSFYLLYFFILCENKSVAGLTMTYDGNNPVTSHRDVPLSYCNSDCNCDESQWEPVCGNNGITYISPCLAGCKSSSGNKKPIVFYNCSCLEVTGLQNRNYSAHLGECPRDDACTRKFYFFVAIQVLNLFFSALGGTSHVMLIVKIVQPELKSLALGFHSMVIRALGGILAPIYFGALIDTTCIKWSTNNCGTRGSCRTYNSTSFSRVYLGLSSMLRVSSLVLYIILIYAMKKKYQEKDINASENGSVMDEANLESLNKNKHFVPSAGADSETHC
T1 sequence (P20813 whole entry): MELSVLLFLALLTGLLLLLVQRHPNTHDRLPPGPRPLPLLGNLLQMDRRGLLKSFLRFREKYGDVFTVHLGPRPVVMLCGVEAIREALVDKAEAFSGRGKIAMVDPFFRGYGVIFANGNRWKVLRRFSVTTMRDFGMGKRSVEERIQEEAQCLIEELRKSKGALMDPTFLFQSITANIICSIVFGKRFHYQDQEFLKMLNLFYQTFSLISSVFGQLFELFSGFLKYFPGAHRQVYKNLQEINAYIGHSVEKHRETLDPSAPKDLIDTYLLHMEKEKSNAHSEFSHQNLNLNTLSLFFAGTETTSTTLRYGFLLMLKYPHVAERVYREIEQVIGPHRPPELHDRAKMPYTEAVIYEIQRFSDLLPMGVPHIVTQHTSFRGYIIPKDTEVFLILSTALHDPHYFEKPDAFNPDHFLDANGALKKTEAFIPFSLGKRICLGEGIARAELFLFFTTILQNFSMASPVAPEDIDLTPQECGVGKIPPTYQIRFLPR
Chain of CYP2C19 (P33261 whole entry): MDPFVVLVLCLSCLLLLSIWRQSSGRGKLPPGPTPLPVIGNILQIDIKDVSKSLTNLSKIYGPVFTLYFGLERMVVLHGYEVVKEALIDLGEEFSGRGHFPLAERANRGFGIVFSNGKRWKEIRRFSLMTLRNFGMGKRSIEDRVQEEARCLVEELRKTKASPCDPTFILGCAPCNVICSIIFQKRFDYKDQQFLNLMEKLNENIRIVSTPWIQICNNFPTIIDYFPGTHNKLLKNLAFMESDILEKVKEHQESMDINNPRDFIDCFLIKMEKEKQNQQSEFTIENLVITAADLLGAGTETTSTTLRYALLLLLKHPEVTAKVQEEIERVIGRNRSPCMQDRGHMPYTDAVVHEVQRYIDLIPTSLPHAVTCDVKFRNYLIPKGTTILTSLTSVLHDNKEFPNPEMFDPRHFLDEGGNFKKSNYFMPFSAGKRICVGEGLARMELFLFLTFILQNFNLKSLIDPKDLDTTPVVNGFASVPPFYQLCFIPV
T3 sequence (Q8TCC7 whole entry): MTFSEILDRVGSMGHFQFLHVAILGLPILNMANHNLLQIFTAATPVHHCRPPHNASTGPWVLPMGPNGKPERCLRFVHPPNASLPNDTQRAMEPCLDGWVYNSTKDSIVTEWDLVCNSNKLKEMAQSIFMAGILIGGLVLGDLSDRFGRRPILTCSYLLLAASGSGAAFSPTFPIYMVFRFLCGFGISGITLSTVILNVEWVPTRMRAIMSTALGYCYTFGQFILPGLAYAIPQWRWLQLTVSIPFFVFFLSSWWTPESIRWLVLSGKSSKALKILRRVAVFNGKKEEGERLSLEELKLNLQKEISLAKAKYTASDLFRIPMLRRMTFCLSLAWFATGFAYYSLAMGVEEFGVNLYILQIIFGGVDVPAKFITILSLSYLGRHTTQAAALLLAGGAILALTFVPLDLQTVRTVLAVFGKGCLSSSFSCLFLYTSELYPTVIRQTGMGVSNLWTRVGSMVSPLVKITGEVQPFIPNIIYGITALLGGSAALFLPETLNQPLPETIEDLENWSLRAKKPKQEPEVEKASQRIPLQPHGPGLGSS
Chain of CYP2D6 (P10635 whole entry): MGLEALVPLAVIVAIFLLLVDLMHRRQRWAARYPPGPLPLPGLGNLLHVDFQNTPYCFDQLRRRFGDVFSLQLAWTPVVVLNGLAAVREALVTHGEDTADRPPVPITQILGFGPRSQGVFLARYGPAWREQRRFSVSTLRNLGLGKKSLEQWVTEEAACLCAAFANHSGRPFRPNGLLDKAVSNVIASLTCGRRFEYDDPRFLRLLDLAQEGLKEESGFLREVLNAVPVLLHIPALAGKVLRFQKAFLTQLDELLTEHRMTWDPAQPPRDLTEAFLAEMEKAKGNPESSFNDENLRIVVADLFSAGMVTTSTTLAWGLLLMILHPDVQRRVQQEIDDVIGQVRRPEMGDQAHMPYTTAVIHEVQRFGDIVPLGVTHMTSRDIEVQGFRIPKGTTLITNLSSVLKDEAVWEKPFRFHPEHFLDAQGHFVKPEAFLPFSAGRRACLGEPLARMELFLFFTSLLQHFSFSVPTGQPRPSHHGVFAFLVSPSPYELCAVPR
Chain of CYP2C8 (P10632 whole entry): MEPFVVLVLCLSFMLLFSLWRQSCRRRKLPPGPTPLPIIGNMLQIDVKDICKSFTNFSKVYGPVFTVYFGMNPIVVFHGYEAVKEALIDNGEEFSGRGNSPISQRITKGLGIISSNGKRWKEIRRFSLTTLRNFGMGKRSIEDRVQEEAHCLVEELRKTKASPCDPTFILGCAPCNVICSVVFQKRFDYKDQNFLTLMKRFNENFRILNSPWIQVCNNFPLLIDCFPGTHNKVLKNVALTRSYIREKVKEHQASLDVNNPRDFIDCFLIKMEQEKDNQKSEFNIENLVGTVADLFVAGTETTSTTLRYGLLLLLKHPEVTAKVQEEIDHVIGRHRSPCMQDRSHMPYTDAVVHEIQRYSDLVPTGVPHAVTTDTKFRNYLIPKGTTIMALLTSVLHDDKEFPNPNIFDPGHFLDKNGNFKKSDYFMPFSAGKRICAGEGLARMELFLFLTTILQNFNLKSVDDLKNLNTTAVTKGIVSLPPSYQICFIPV

**Q.** For `COC(=O)[C@H](c1ccccc1Cl)N1CCc2sccc2C1` [Clopidogrel], which nH (CYP2B6 [1]) is on record?
**A.** 1.3

**Q.** And the IC50 (CYP2B6 [2])?
**A.** 740 nM

**Q.** With `COc1ccc2c3c([nH]c2c1)[C@H](CC(C)C)N1C(=O)[C@H](CCC(=O)OC(C)(C)C)NC(=O)[C@@H]1C3` [Ko143, reference compound] as the molecule, how does the stability in plasma [3] read?
**A.** not stable in plasma

**Q.** And the “combinatorial effect with oxaliplatin on cell viability” value (HT29SN-38-RES cells)?
**A.** no added effects

**Q.** For `O=C1c2c(O)ccc(O)c2C(=O)c2c(NCCNCCO)ccc(NCCNCCO)c21` [Mitoxantrone], which IC50 (MDCK-II-WT cells) is on record?
**A.** 157 ± 23 nM

**Q.** With `CC(C)(O)c1ccccc1CC[C@@H](SCC1(CC(=O)O)CC1)c1cccc(/C=C/c2ccc3ccc(Cl)cc3n2)c1` [Montelukast] as the molecule, how does the nH (CYP2C8) read?
**A.** 0.8

**Q.** For `CCN(CC)CC#CCOC(=O)C(O)(c1ccccc1)C1CCCCC1` (stereo not drawn) [Oxybutynin], which nH (CYP2C19) is on record?
**A.** 1.0

**Q.** For `C/C=C/C[C@@H](C)C(=O)[C@H]1C(=O)N[C@@H](C(C)C)C(=O)N(C)CC(=O)N(C)[C@@H](CC(C)C)C(=O)N[C@@H](C(C)C)C(=O)N(C)[C@@H](CC(C)C)C(=O)N[C@@H](C)C(=O)N[C@H](C)C(=O)N(C)[C@@H](CC(C)C)C(=O)N(C)[C@@H](CC(C)C)C(=O)N(C)[C@@H](C(C)C)C(=O)N1C` [PSC833, reference compound], which “Hoechst accumulation in resistant cells” value (BCRP [4]) is on record?
**A.** did not have any effects

**Q.** Which nH (OAT3) does the source give for `CCCN(CCC)S(=O)(=O)c1ccc(C(=O)O)cc1` [Probenecid] here?
**A.** 0.6

**Q.** For `C=C[C@H]1C[N@@]2CC[C@H]1C[C@@H]2[C@@H](O)c1ccnc2ccc(OC)cc12` [Quinidine], which nH (CYP2D6) is on record?
**A.** 1.1

**Q.** Which nH (OATP1B3) does the source give for `CO[C@H]1/C=C/O[C@@]2(C)Oc3c(C)c(O)c4c(O)c(c(/C=N/N5CCN(C)CC5)c(O)c4c3C2=O)NC(=O)/C(C)=C\C=C\[C@H](C)[C@H](O)[C@@H](C)[C@@H](O)[C@@H](C)[C@H](OC(C)=O)[C@@H]1C` [Rifampicin] here?
**A.** 0.4

**Q.** And the IC50 (OATP1B3; NC: not calculable)?
**A.** 5.4 µM

**Q.** And the nH (OATP1B1)?
**A.** 0.6

**Q.** What about the IC50 (OATP1B1; NC: not calculable) of the same molecule?
**A.** 2200 nM

**Q.** Which IC50 (HT29PAR cells) does the source give for `CCc1c2c(nc3ccc(O)cc13)-c1cc3c(c(=O)n1C2)COC(=O)[C@]3(O)CC` [SN-38, 7-Ethyl-10-hydroxycamptothecin] here?
**A.** 16 ± 10 nM

**Q.** For `O=C(O)c1cc(/N=N/c2ccc(S(=O)(=O)Nc3ccccn3)cc2)ccc1O` [Sulfasalazine, reference compound], which “maximal ATPase activity” value (BCRP [5]) is on record?
**A.** 104.8 nmol Pi/mg protein/min

**Q.** For `CC[C@@]1(O)C(=O)OCc2c1cc1n(c2=O)Cc2cc3c(CN(C)C)c(O)ccc3nc2-1` [Topotecan], which IC50 (HT29PAR cells) is on record?
**A.** 8 ± 3 nM

**Q.** For `C[C@]12CC[C@@H]3c4ccc(OS(=O)(=O)O)cc4CC[C@H]3[C@@H]1CCC2=O` [[^3H]-estrone-3-sulfate], which “apparent permeability in the efflux direction (basolateral to apical)” value (Caco-2 cell monolayers) is on record?
**A.** 2.7 ± 0.2 × 10^−5 cm/second

**Q.** What about the “apparent permeability in the opposite direction (apical to basolateral)” value (Caco-2 cell monolayers) of the same molecule?
**A.** 2.2 ± 0.01 × 10^−6 cm/second

**Q.** And the “efflux ratio (PB-A/PA-B)” value (Caco-2 cell monolayers)?
**A.** 12.2

**Q.** For `OC[C@@H](O)[C@@H](O)[C@H](O)[C@H](O)CO` [mannitol], which Papp at 120 min, 0.8 µCi/mL [6] is on record?
**A.** 0.21 ×10⁻⁶ cm/s
